Data as given in patent US7176228B2, “Pyrazole biphenylcarboxamides” (Bayer Cropscience AG, priority 2000, dated 2007).

experiment: logP determination by HPLC on a reversed-phase column (EEC Directive 79/831 Annex V.A8); assay type: physicochemical; details: reversed-phase C18 HPLC column, reversed-phase column (C 18), 43° C., acidic range (a): 0.1% aqueous phosphoric acid, acetonitrile gradient 10% to 90%
Method: [table] Calibration was carried out using unbranched alkan-2-ones (having 3 to 16 carbon atoms) with known logP values (determination of the logP values by the retention times using linear interpolation between two successive alkanones).

Question: For `CO/N=C/c1cccc(-c2ccccc2NC(=O)c2sc(C)nc2C(F)(F)F)c1` [Example 2], which chromatographic logP is on record?
Answer: 3.42

Question: With `CCCCO/N=C\c1ccc(-c2ccccc2NC(=O)c2sc(C)nc2C(F)(F)F)cc1` [Example 3] as the compound, how does the chromatographic logP read?
Answer: 4.65

Question: Which chromatographic logP does the source give for `Cc1nc(C(F)(F)F)c(C(=O)Nc2ccccc2-c2ccc(/C=N\OC(C)C)cc2)s1` [Example 5] here?
Answer: 4.23

Question: Which chromatographic logP does the source give for `CO/N=C\c1ccc(-c2ccccc2NC(=O)c2c(C)nn(C)c2Cl)cc1` [Example 17] here?
Answer: 3.24

Question: For `CO/N=C\c1ccc(-c2ccccc2NC(=O)c2cn(C)cc2C)cc1` [Example 19], which chromatographic logP is on record?
Answer: 5.1

Question: Which chromatographic logP does the source give for `CCCCO/N=C/c1ccc(-c2ccccc2NC(=O)c2cn(C)nc2C(F)(F)F)cc1` [Example 22] here?
Answer: 4.26

Question: With `CCCO/N=C/c1ccc(-c2ccccc2NC(=O)c2sc(C)nc2C(F)(F)F)cc1` [Example 23] as the compound, how does the chromatographic logP read?
Answer: 4.26

Question: Which chromatographic logP does the source give for `CCCO/N=C/c1ccc(-c2ccccc2NC(=O)c2cn(C)nc2C(F)(F)F)cc1` [Example 28] here?
Answer: 3.86

Question: With `Cc1nc(C(F)(F)F)c(C(=O)Nc2ccccc2-c2ccc(/C=N\O)cc2)s1` [Example 30] as the compound, how does the chromatographic logP read?
Answer: 2.78

Question: Which chromatographic logP does the source give for `CO/N=C/c1ccc(-c2ccccc2NC(=O)c2sc(N(C)C)nc2C(F)(F)F)cc1` [Example 32] here?
Answer: 3.84

Question: Which chromatographic logP does the source give for `CO/N=C/c1ccc(-c2ccccc2NC(=O)c2cccnc2OC)cc1` [Example 33] here?
Answer: 4.12

Question: With `CO/N=C/c1ccc(-c2ccccc2NC(=O)c2ccc(OC)nc2OC)cc1` [Example 34] as the compound, how does the chromatographic logP read?
Answer: 4.73

Question: For `CO/N=C/c1ccc(-c2ccccc2NC(=O)c2cccnc2C)cc1` [Example 35], which chromatographic logP is on record?
Answer: 2.04

Question: For `CO/N=C/c1ccc(-c2ccccc2NC(=O)c2ccccc2C(F)(F)F)cc1` [Example 36], which chromatographic logP is on record?
Answer: 3.75

Question: Which chromatographic logP does the source give for `CO/N=C/c1ccc(-c2ccccc2NC(=O)c2sc(Cl)nc2C(F)(F)F)cc1` [Example 37] here?
Answer: 4.08

Question: For `CO/N=C/c1ccc(-c2ccccc2NC(=O)c2ccccc2Cl)cc1` [Example 38], which chromatographic logP is on record?
Answer: 3.59

Question: With `CO/N=C/c1ccc(-c2ccccc2NC(=O)c2ccccc2Br)cc1` [Example 39] as the compound, how does the chromatographic logP read?
Answer: 3.61

Question: Which chromatographic logP does the source give for `CO/N=C/c1ccc(-c2ccccc2NC(=O)c2ccccc2C)cc1` [Example 40] here?
Answer: 3.56

Question: With `Cn1cc(C(=O)Nc2ccccc2-c2ccc(/C=N\O)cc2)c(C(F)(F)F)n1` [Example 41] as the compound, how does the chromatographic logP read?
Answer: 3.19

Question: Which chromatographic logP does the source give for `CO/N=C/c1ccc(-c2ccccc2NC(=O)c2ccoc2C)cc1` [Example 42] here?
Answer: 3.47

Question: With `CO/N=C/c1cccc(-c2ccccc2NC(=O)c2ccoc2C)c1` [Example 43] as the compound, how does the chromatographic logP read?
Answer: 3.47

Question: With `CO/N=C/c1cccc(-c2ccccc2NC(=O)c2ccccc2C(F)(F)F)c1` [Example 44] as the compound, how does the chromatographic logP read?
Answer: 3.76

Question: Which chromatographic logP does the source give for `CO/N=C/c1ccc(-c2ccccc2NC(=O)c2ccccc2I)cc1` [Example 45] here?
Answer: 3.73

Question: For `CO/N=C/c1cccc(-c2ccccc2NC(=O)c2ccccc2I)c1` [Example 46], which chromatographic logP is on record?
Answer: 3.73

Question: With `CO/N=C/c1ccc(-c2ccccc2NC(=O)c2sccc2C)cc1` [Example 47] as the compound, how does the chromatographic logP read?
Answer: 3.86

Question: With `CO/N=C/c1cccc(-c2ccccc2NC(=O)c2sccc2C)c1` [Example 48] as the compound, how does the chromatographic logP read?
Answer: 3.84

Question: With `CO/N=C/c1ccc(-c2ccccc2NC(=O)c2cn(C)nc2C(F)(F)F)cc1Cl` [Example 49] as the compound, how does the chromatographic logP read?
Answer: 3.54

Question: With `CO/N=C\c1cc(-c2ccccc2NC(=O)c2cn(C)nc2C(F)(F)F)ccc1/C=N/OC` [Example 50] as the compound, how does the chromatographic logP read?
Answer: 3.36

Question: Which chromatographic logP does the source give for `CO/N=C/c1ccc(-c2c(C)cccc2NC(=O)c2sc(C)nc2C(F)(F)F)cc1` [Example 51] here?
Answer: 3.78

Question: With `CO/N=C/c1cccc(-c2ccccc2NC(=O)c2cn(C)nc2C(F)(F)F)c1` [Example 52] as the compound, how does the chromatographic logP read?
Answer: 3.25

Question: Which chromatographic logP does the source give for `CO/N=C/c1ccc(-c2ccccc2NC(=O)C2=C(C)OCCS2)cc1` [Example 53] here?
Answer: 3.75

Question: With `CO/N=C/c1ccc(-c2ccccc2NC(=O)c2ccco2)cc1` [Example 54] as the compound, how does the chromatographic logP read?
Answer: 3.2

Question: With `CO/N=C/c1cccc(-c2ccccc2NC(=O)c2ccco2)c1` [Example 55] as the compound, how does the chromatographic logP read?
Answer: 3.2

Question: With `CO/N=C/c1ccc(-c2ccccc2NC(=O)c2sccc2Br)cc1` [Example 56] as the compound, how does the chromatographic logP read?
Answer: 4.39

Question: For `CO/N=C/c1cccc(-c2ccccc2NC(=O)c2sccc2Br)c1` [Example 57], which chromatographic logP is on record?
Answer: 4.39

Question: With `CO/N=C/c1cccc(-c2ccccc2NC(=O)c2c(C)nn(C)c2Cl)c1` [Example 58] as the compound, how does the chromatographic logP read?
Answer: 3.37

Question: With `CO/N=C/c1cccc(-c2ccccc2NC(=O)C2=C(C)OCCS2)c1` [Example 59] as the compound, how does the chromatographic logP read?
Answer: 3.64

Question: For `CO/N=C/c1ccc(-c2ccccc2NC(=O)c2sc(C)nc2C(F)F)cc1` [Example 60], which chromatographic logP is on record?
Answer: 3.26

Question: For `CO/N=C/c1cccc(-c2ccccc2NC(=O)c2sc(C)nc2C(F)F)c1` [Example 61], which chromatographic logP is on record?
Answer: 3.26

Question: Which chromatographic logP does the source give for `CO/N=C/c1ccc(-c2ccccc2NC(=O)c2ccc(C(F)(F)F)o2)cc1` [Example 62] here?
Answer: 3.99

Question: For `CO/N=C/c1cccc(-c2ccccc2NC(=O)c2ccc(C(F)(F)F)o2)c1` [Example 63], which chromatographic logP is on record?
Answer: 4.02

Question: With `CO/N=C/c1ccc(-c2ccccc2NC(=O)c2cc(C)oc2C(F)(F)F)cc1` [Example 64] as the compound, how does the chromatographic logP read?
Answer: 3.94

Question: Which chromatographic logP does the source give for `CO/N=C/c1cccc(-c2ccccc2NC(=O)c2cc(C)oc2C(F)(F)F)c1` [Example 65] here?
Answer: 3.97

Question: For `CO/N=C/c1ccc(-c2ccccc2NC(=O)c2cn(C)cc2C(C)C)cc1` [Example 66], which chromatographic logP is on record?
Answer: 3.82

Question: Which chromatographic logP does the source give for `CO/N=C/c1ccc(-c2ccccc2NC(=O)c2sc(Cl)nc2C)cc1` [Example 67] here?
Answer: 3.75

Question: Which chromatographic logP does the source give for `CO/N=C/c1cccc(-c2ccccc2NC(=O)c2sc(Cl)nc2C)c1` [Example 68] here?
Answer: 3.75

Question: For `CO/N=C/c1cccc(-c2ccccc2NC(=O)c2nc(C)oc2C(F)(F)F)c1` [Example 70], which chromatographic logP is on record?
Answer: 4.45

Question: For `CO/N=C/c1ccc(-c2ccccc2NC(=O)c2ccc(Br)o2)cc1` [Example 71], which chromatographic logP is on record?
Answer: 3.78

Question: With `CO/N=C/c1cccc(-c2ccccc2NC(=O)c2ccc(Br)o2)c1` [Example 72] as the compound, how does the chromatographic logP read?
Answer: 3.8

Question: With `CO/N=C/c1cccc(-c2ccccc2NC(=O)c2sc(N(C)C)nc2C(F)(F)F)c1` [Example 73] as the compound, how does the chromatographic logP read?
Answer: 4

Question: Which chromatographic logP does the source give for `CO/N=C/c1ccc(-c2ccccc2NC(=O)c2sc(C)nc2C(F)(F)F)cc1Cl` [Example 74] here?
Answer: 3.95

Question: With `CCCCO/N=C(/C)c1ccc(-c2ccccc2NC(=O)c2sc(C)nc2C(F)(F)F)cc1` [Example 77] as the compound, how does the chromatographic logP read?
Answer: 4.77

Question: Which chromatographic logP does the source give for `CCc1nn(C)c(Cl)c1C(=O)Nc1ccccc1-c1ccc(/C=N/OC)cc1` [Example 95] here?
Answer: 3.68

Question: Which chromatographic logP does the source give for `CCc1nn(C)c(Cl)c1C(=O)Nc1ccccc1-c1cccc(/C=N/OC)c1` [Example 96] here?
Answer: 3.72

Question: With `CO/N=C/c1ccc(-c2ccccc2NC(=O)c2c(C3CC3)nn(C)c2Cl)cc1` [Example 97] as the compound, how does the chromatographic logP read?
Answer: 3.76

Question: With `CO/N=C/c1cccc(-c2ccccc2NC(=O)c2c(C3CC3)nn(C)c2Cl)c1` [Example 98] as the compound, how does the chromatographic logP read?
Answer: 3.81

Question: With `CO/N=C/c1ccc(-c2ccccc2NC(=O)c2cc(Cl)sc2Cl)cc1` [Example 99] as the compound, how does the chromatographic logP read?
Answer: 4.67

Question: For `CO/N=C/c1cccc(-c2ccccc2NC(=O)c2cc(Cl)sc2Cl)c1` [Example 100], which chromatographic logP is on record?
Answer: 4.72

Question: Which chromatographic logP does the source give for `CO/N=C/c1ccc(-c2ccccc2NC(=O)c2ccc([N+](=O)[O-])o2)cc1` [Example 101] here?
Answer: 3.26

Question: For `CO/N=C/c1cccc(-c2ccccc2NC(=O)c2ccc([N+](=O)[O-])o2)c1` [Example 102], which chromatographic logP is on record?
Answer: 3.26

Question: Which chromatographic logP does the source give for `CCn1nc(C)c(C(=O)Nc2ccccc2-c2ccc(/C=N/OC)cc2)c1Cl` [Example 103] here?
Answer: 3.87

Question: Which chromatographic logP does the source give for `CO/N=C/c1ccc(-c2ccccc2NC(=O)c2ccsc2)cc1` [Example 108] here?
Answer: 3.1

Question: For `CO/N=C/c1ccc(-c2ccccc2NC(=O)c2ccsc2C)cc1` [Example 110], which chromatographic logP is on record?
Answer: 3.58

Question: With `CO/N=C/c1cccc(-c2ccccc2NC(=O)c2ccsc2C)c1` [Example 111] as the compound, how does the chromatographic logP read?
Answer: 3.59

Question: Which chromatographic logP does the source give for `CO/N=C/c1ccc(-c2ccccc2NC(=O)c2cn(C)nc2C(F)(F)F)cc1F` [Example 112] here?
Answer: 3.21

Question: For `CO/N=C/c1ccc(-c2ccccc2NC(=O)c2cccnc2O)cc1` [Example 113], which chromatographic logP is on record?
Answer: 2.43

Question: With `CO/N=C/c1ccc(-c2ccccc2NC(=O)c2cn(C)nc2C(F)F)cc1F` [Example 114] as the compound, how does the chromatographic logP read?
Answer: 3

Question: Which chromatographic logP does the source give for `CCCO/N=C/c1ccc(-c2ccccc2NC(=O)c2c(C)nn(C)c2Cl)cc1` [Example 118] here?
Answer: 4.22
